The values below come from US20230348426A1, “OXOPYRROLIDINE FPR2 AGONISTS” (Bristol-Myers Squibb Company, priority 2020, published 2023).

One experiment has as its target human FPR1 (Homo sapiens (Human), UniProt P21462). The experiment is described as follows: FPR1 cyclic adenosine monophosphate (cAMP) assay. It is filed as cell-based. To be noted: CHO cells overexpressing human FPR1; forskolin 10 µM; inhibition of cAMP production; read-out: hFPR1 cAMP EC50. Summed up: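 CHO cells overexpressing human FPR1 (4,000 cells/well) stimulated with 10 µM forskolin plus 200 µM IBMX in the presence of compound (0.020 nM–100 µM, 1% DMSO), 30 min at room temperature. Intracellular cAMP measured by HTRF. Inhibition of cAMP production fitted to a 4-parameter logistic equation.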
Background: Changes in cAMP serve as a functional read-out for many G protein-coupled receptors.

The next experiment concerns the target human FPR2 (Homo sapiens (Human), UniProt P25090). Kind of experiment: FPR2 cyclic adenosine monophosphate (cAMP) assay. It is filed as cell-based. To be noted: CHO cells overexpressing human FPR2; forskolin 5 µM; inhibition of cAMP production; read-out: hFPR2 cAMP2 EC50. In outline:
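CHO cells overexpressing human FPR2 (2,000/well) incubated 30 min at room temperature with compound (0.020 nM–100 µM, 1% DMSO), 5 µM forskolin and 200 µM IBMX.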

Chain of human FPR2 (P25090 whole entry): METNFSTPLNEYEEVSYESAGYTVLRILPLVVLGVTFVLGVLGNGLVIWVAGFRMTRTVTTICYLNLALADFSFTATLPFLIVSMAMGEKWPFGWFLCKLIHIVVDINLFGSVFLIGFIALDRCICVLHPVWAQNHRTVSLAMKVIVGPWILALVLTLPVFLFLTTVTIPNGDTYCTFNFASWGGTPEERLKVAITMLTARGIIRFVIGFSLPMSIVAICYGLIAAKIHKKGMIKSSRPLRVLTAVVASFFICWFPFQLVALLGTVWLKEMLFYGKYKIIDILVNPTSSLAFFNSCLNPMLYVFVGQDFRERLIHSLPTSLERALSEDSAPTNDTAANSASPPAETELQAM
Chain of human FPR1 (P21462 whole entry): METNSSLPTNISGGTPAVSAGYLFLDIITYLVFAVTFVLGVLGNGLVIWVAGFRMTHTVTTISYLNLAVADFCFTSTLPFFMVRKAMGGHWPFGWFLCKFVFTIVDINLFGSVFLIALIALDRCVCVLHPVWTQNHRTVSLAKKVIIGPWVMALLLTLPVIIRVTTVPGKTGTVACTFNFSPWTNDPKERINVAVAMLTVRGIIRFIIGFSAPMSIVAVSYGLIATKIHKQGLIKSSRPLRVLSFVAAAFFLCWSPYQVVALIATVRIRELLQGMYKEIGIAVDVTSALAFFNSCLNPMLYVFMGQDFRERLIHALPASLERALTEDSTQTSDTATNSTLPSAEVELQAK

One may read the EC50 as the concentration giving half of the maximal effect. Consider `COc1cc(F)c([C@@H]2CN(c3nc(N4C[C@@H](C)N(C)[C@@H](C)C4)ccc3OC)C(=O)[C@H]2NC(=O)c2ccc(Cl)cc2)c(F)c1` [Example 284], for which the results for the EC50 at human FPR1 and on human FPR2 were 580 nM and 8.4 nM, respectively.
Consider `COc1cc(N2C[C@@H](c3c(F)cc(OC)cc3F)[C@H](NC(=O)c3ccc(OC(F)F)cc3)C2=O)nc(N2C[C@@H]3C[C@H]2CN3C)c1` [Example 285], for which the EC50 at human FPR1 is 220 nM; on human FPR2 it was 2.9 nM.
For `COc1cc(F)c([C@@H]2CN(c3c(Cl)ccn(C)c3=O)C(=O)[C@H]2NC(=O)c2ccc(OC(F)F)cc2)c(F)c1` [Example 286] the same measures were 130 nM and 8.5 nM.
Turning to `COc1cc(F)c([C@@H]2CN(c3nccc(N4CCN(C)CC4)c3C#N)C(=O)[C@H]2NC(=O)c2ccc(Cl)cc2)c(F)c1` [Example 287], the EC50 on human FPR1 was 4600 nM; on human FPR2 it was 8.6 nM.
Taken in the same sequence, the figures for `COCCn1ccc(C)c(N2C[C@@H](c3ccc(OC)cc3F)[C@H](NC(=O)c3ccc(OC(F)(F)F)cc3)C2=O)c1=O` [Example 288] were 0.8 nM and 8.6 nM.
For `CNC(=O)C(C)Nc1ccnc(N2C[C@@H](c3c(F)cc(OC)cc3F)[C@H](NC(=O)c3ccc(Cl)cc3)C2=O)c1C(F)(F)F` (some centres unmarked) [Example 290] the same measures were 1800 nM and 8.6 nM.
On to `COc1cc(F)c([C@@H]2CN(c3c(C)ccn(C)c3=O)C(=O)[C@H]2NC(=O)c2ccc(OC(F)(F)F)cc2)c(F)c1` [Example 291], for which the EC50 at human FPR1 was 6.6 nM; at human FPR2 it was 8.7 nM.
Taken in the same sequence, the figures for `COCCn1cccc(N2C[C@@H](c3c(F)cc(OC)cc3F)[C@H](NC(=O)c3ccc(C)cc3)C2=O)c1=O` [Example 292] were 950 nM and 8.7 nM.
For `COCC(CO)n1cccc(N2C(=O)[C@@H](NC(=O)c3ccc(OC(F)(F)F)cc3)[C@H](c3c(F)cc(OC)cc3F)[C@@H]2C)c1=O` (some centres unmarked) [Example 293] the same measures were 44 nM and 8.7 nM.
Taken in the same sequence, the figures for `COc1cc(F)c([C@@H]2CN(c3c(C)ccn(CC(O)C(F)(F)F)c3=O)C(=O)[C@H]2NC(=O)c2ccc(OC(F)F)cc2)c(F)c1` (some centres unmarked) [Example 294] were 9.1 nM and 8.8 nM.
As for `COCC(C(=O)N(C)C)n1ccc(C)c(N2C[C@@H](c3ccc(OC)cc3)[C@H](NC(=O)c3ccc(OC(F)F)cc3)C2=O)c1=O` (some centres unmarked) [Example 295], the EC50 at human FPR1 is 0.6 nM; on human FPR2, 8.9 nM.
For `COc1cc(F)c([C@@H]2CN(c3c(C)ccn(CC(OC)C(F)(F)F)c3=O)C(=O)[C@H]2NC(=O)c2ccc(OC(F)(F)F)cc2)c(F)c1` (some centres unmarked) [Example 297] the same measures were 0.1 nM and 9 nM.
For `COc1cc(F)c([C@@H]2CN(c3cccn(C4CCOC4)c3=O)C(=O)[C@H]2NC(=O)c2ccc(OC(F)(F)F)cc2)c(F)c1` (some centres unmarked) [Example 298] the same measures were 8.5 nM and 9 nM.
Taken in the same sequence, the figures for `COc1cc(F)c([C@@H]2CN(c3cc(NC(C)=O)cn(C)c3=O)C(=O)[C@H]2NC(=O)c2ccc(Cl)cc2)c(F)c1` [Example 299] were 1900 nM and 9.2 nM.
Turning to `COc1cc(F)c([C@@H]2CN(c3cccnn3)C(=O)[C@H]2NC(=O)c2ccc(OC(F)F)cc2)c(F)c1` [Example 300], the EC50 worked out at 360 nM on human FPR1 and 9.3 nM at human FPR2.
Taken in the same sequence, the figures for `COc1cc(F)c([C@H]2[C@H](NC(=O)c3ccc(OC(F)(F)F)cc3)C(=O)N(c3cccn(CCO)c3=O)[C@H]2C)c(F)c1` [Example 301] were 150 nM and 9.3 nM.
For `COCCn1cccc(N2C[C@@H](c3c(F)cc(OC)cc3F)[C@H](NC(=O)c3ccc(OC(F)(F)F)cc3)C2=O)c1=O` [Example 302] the same measures were 22 nM and 10 nM.
Regarding `COc1cc(F)c([C@@H]2CN(c3nc(N4CCN(C)CC4)ccc3OC)C(=O)[C@H]2NC(=O)c2ccc(OC(F)F)cc2)c(F)c1` [Example 303], the EC50 on human FPR1 was 390 nM; at human FPR2 it was 9.6 nM.
Taken in the same sequence, the figures for `COc1cc(F)c([C@@H]2CN(c3cccn(C4COC4)c3=O)C(=O)[C@H]2NC(=O)c2ccc(OC(F)F)cc2)c(F)c1` [Example 304] were 90 nM and 9.6 nM.
For `COc1cc(F)c([C@@H]2CN(c3cccnc3P(C)(C)=O)C(=O)[C@H]2NC(=O)c2ccc(Cl)cc2)c(F)c1` [Example 305] the same measures were 1300 nM and 9.6 nM.
Taken in the same sequence, the figures for `COc1cc(F)c([C@@H]2CN(c3cccn(CCN4CCS(=O)(=O)CC4)c3=O)C(=O)[C@H]2NC(=O)c2ccc(OC(F)F)cc2)c(F)c1` [Example 306] were 250 nM and 9.8 nM.
For `COCC(CO)n1cccc(N2C[C@@H](c3ccc(Cl)cc3)[C@H](NC(=O)c3ccc(OC(F)F)cc3)C2=O)c1=O` (some centres unmarked) [Example 307], the EC50 at human FPR1 was 1.8 nM; at human FPR2 it was 9.9 nM.
On to `COc1cc(F)c([C@@H]2CN(c3cccn(CC(C)(C)O)c3=O)C(=O)[C@H]2NC(=O)c2ccc(OC(F)F)cc2)c(F)c1` [Example 308], for which the results for the EC50 at human FPR1 and on human FPR2 were 180 nM and 9.9 nM, respectively.
For `COc1cc(F)c([C@@H]2CN(c3c(C)ccn(C)c3=O)C(=O)[C@H]2NC(=O)c2ccc(OC(F)F)cc2)c(F)c1` [Example 310] the same measures were 67 nM and 10 nM.
On to `COc1cc(F)c([C@@H]2CN(c3c(C(F)(F)F)ccn(C)c3=O)C(=O)[C@H]2NC(=O)c2ccc(OC(F)F)cc2)c(F)c1` [Example 311], for which the figures for the EC50 on human FPR1 and on human FPR2 were 1900 nM and 10 nM, respectively.
For `COc1ccc([C@@H]2CN(c3c(C)ccn(CC4CC4)c3=O)C(=O)[C@H]2NC(=O)c2ccc(OC(F)(F)F)cc2)c(F)c1` [Example 312] the same measures were 0.5 nM and 10 nM.
Taken in the same sequence, the figures for `COc1cc(F)c([C@@H]2CN(c3nc(C(C)(C)O)ccc3F)C(=O)[C@H]2NC(=O)c2ccc(Cl)cc2)c(F)c1` [Example 313] were 5400 nM and 10 nM.
For `COc1cc(F)c([C@@H]2CN(c3c(C)ccn(CC(OC)C(F)(F)F)c3=O)C(=O)[C@H]2NC(=O)c2ccc(OC(F)F)cc2)c(F)c1` (some centres unmarked) [Example 314] the same measures were 0.4 nM and 10 nM.
Regarding `COCC(CO)n1cccc(N2C[C@@H](c3ccc(OC)cc3)[C@H](NC(=O)c3ccc(OC(F)F)cc3)C2=O)c1=O` (some centres unmarked) [Example 315], the EC50 was found to be 9.6 nM at human FPR1 and 10 nM at human FPR2.
With `COc1cc(F)c([C@@H]2CN(c3nc(C4CCOCC4)ccc3F)C(=O)[C@H]2NC(=O)c2ccc(OC(F)F)cc2)c(F)c1` [Example 316], the EC50 on human FPR1 is 95 nM; on human FPR2, 10 nM.
For `COCC(C(=O)N(C)C)n1cccc(N2C[C@@H](c3ccc(Cl)cc3)[C@H](NC(=O)c3ccc(OC(F)F)cc3)C2=O)c1=O` (some centres unmarked) [Example 317] the same measures were 2.6 nM and 10 nM.
Consider `COc1cc(F)c([C@@H]2CN(c3nc(N4C[C@@H](C)N(C)[C@@H](C)C4)ccc3C#N)C(=O)[C@H]2NC(=O)c2ccc(Cl)cc2)c(F)c1` [Example 318], for which the results for the EC50 on human FPR1 and at human FPR2 were more than 10000 nM and 10 nM, respectively.
For `CCn1cccc(N2C[C@@H](c3c(F)cc(OC)cc3F)[C@H](NC(=O)c3ccc(C#N)cc3)C2=O)c1=O` [Example 319] the same measures were 200 nM and 10 nM.
`COc1cc(F)c([C@@H]2CN(c3cccn(C4CCOC4)c3=O)C(=O)[C@H]2NC(=O)c2ccc(OC(F)F)cc2)c(F)c1` (some centres unmarked) [Example 320]: the EC50 at human FPR1 was determined as 44 nM; at human FPR2 it was 10 nM.
For `COc1cc(F)c([C@@H]2CN(c3cccn(CC(F)F)c3=O)C(=O)[C@H]2NC(=O)c2ccc(C#N)cc2)c(F)c1` [Example 321] the same measures were 570 nM and 10 nM.
For `COCCn1cc(F)cc(N2C[C@@H](c3c(F)cc(OC)cc3F)[C@H](NC(=O)c3ccc(OC(F)(F)F)cc3)C2=O)c1=O` [Example 322] the same measures were 97 nM and 10 nM.
Taken in the same sequence, the figures for `COc1cc(F)c([C@@H]2CN(c3cc(NC(C)=O)cn(C)c3=O)C(=O)[C@H]2NC(=O)c2ccc(OC(F)F)cc2)c(F)c1` [Example 323] were 750 nM and 11 nM.
`COc1cc(F)c([C@@H]2CN(c3ccc(C)n(C)c3=O)C(=O)[C@H]2NC(=O)c2ccc(OC(F)F)cc2)c(F)c1` [Example 324]: the figures for the 50% effective concentration (EC50) at human FPR1 and on human FPR2 were 130 nM and 11 nM, respectively.
For `COCC(CO)n1ccc(C)c(N2C[C@@H](c3c(F)cc(OC)cc3F)[C@H](NC(=O)c3ccc(OC(F)(F)F)cc3)C2=O)c1=O` (some centres unmarked) [Example 325], the EC50 at human FPR1 was 1.6 nM; at human FPR2, 11 nM.
For `COc1cc(F)c([C@@H]2CN(c3nc(N4CCC(O)C4=O)ccc3F)C(=O)[C@H]2NC(=O)c2ccc(OC(F)(F)F)cc2)c(F)c1` (some centres unmarked) [Example 326] the same measures were 35 nM and 11 nM.
For `COc1cc(F)c([C@@H]2CN(c3nccc(NC4COC4)c3C(F)(F)F)C(=O)[C@H]2NC(=O)c2ccc(Cl)cc2)c(F)c1` [Example 327] the same measures were 1700 nM and 12 nM.
For `COc1cc(F)c([C@@H]2CN(c3nc(N4C[C@@H]5C[C@H]4CN5C)ccc3OC)C(=O)[C@H]2NC(=O)c2ccc(OC(F)F)cc2)c(F)c1` [Example 328] the same measures were 610 nM and 12 nM.
`COc1cc(F)c([C@@H]2CN(c3cc(C#N)cn(C)c3=O)C(=O)[C@H]2NC(=O)c2ccc(OC(F)F)cc2)c(F)c1` [Example 330]: the EC50 came out at 3700 nM at human FPR1 and 13 nM at human FPR2.
